Source: US11752103B2, “Tramadol hydrochloride solution” (Athena Bioscience, LLC, priority 2019, dated 2023)
Counter-ions that a name gives are not always drawn.

Legend:
[1] = Physicochemical data of tramadol hydrochloride
Description: Therefore, the Ex. 2 solution was evaluated for further studies.

μ-opioid receptors = conditions: times more potent than tramadol; cited from earlier work
[2] = animal models; times more potent than tramadol; cited from earlier work

SMILES | pH of tramadol hydrochloride [1] | pKa [1] | solubility ([1]; pH of about 4.5) | potency in μ-opioid binding relative to tramadol (μ-opioid receptors) [times] | potency in producing analgesia relative to tramadol [2]
COc1cccc(C2(O)CCCCC2CN(C)C)c1 (mixture of isomers) [tramadol hydrochloride, (±) cis-2-[(dimethylamino)methyl]-1-(3-methoxyphenyl)cyclohexan-1-ol, hydrochloride] | about 5.3 | 9.8 | freely soluble | – | –
CN(C)C[C@@H]1CCCC[C@@]1(O)c1cccc(O)c1 (relative stereo) [ODMT, 3-[cis-2-[(dimethylamino)methyl]-1-hydroxycyclohexyl]-phenol] | – | – | – | 200 | up to 6 times
